The supplement of paper PMC10307832

Legend:
Assay in all cases: relative viability (nuclei count vs DMSO), 5 days (fraction); higher = more cells survive
[1] = compound: COc1ccc(-c2ccc3c(N4CCOC[C@@H]4C)nc(N4CCOC[C@@H]4C)nc3n2)cc1CO [AZD8055] + CS(=O)(=O)CCNCc1ccc(-c2ccc3ncnc(Nc4ccc(OCc5cccc(F)c5)c(Cl)c4)c3c2)o1 [Lapatinib] (partner 2 µM)
How it was run: (§1)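 For relative viability, nuclei counts in treated wells were divided by those in vehicle wells. Lung cancer cell lines had been pin-tool dosed in 1536-well plates the day after seeding and cultured for 5 days, then fixed and stained in one step (final 0.05% Triton X-100, 1% formaldehyde, 1 ug/ml Hoechst) and imaged at 4×. Doses were one drug alone or a fixed anchor-drug dose plus five library-drug doses (not always all listed) in √10 steps, and values are duplicate-plate medians.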

[2] = compound: COc1ccc(-c2ccc3c(N4CCOC[C@@H]4C)nc(N4CCOC[C@@H]4C)nc3n2)cc1CO [AZD8055] + O=C(c1cc(Cc2n[nH]c(=O)c3ccccc23)ccc1F)N1CCN(C(=O)C2CC2)CC1 [Olaparib] (partner 8 µM)
How it was run: as §1

[3] = compound: COc1ccc(-c2ccc3c(N4CCOC[C@@H]4C)nc(N4CCOC[C@@H]4C)nc3n2)cc1CO [AZD8055] + Nc1ncn([C@H]2C[C@H](O)[C@@H](CO)O2)c(=O)n1 [Decitabine] (partner 2 µM)
How it was run: as §1

[4] = compound: COc1ccc(-c2ccc3c(N4CCOC[C@@H]4C)nc(N4CCOC[C@@H]4C)nc3n2)cc1CO [AZD8055] + CCNC(=O)c1noc(-c2cc(C(C)C)c(O)cc2O)c1-c1ccc(CN2CCOCC2)cc1 [Luminespib] (partner 0.01 µM)
How it was run: as §1

Cell Line	relative viability ([1]; first compound 0.01 µM)	relative viability ([1]; first compound 0.03162 µM)	relative viability ([1]; first compound 0.1 µM)	relative viability ([1]; first compound 0.3162 µM)	relative viability ([1]; first compound 1 µM)	relative viability ([2]; first compound 0.01 µM)	relative viability ([2]; first compound 0.03162 µM)	relative viability ([2]; first compound 0.1 µM)	relative viability ([2]; first compound 0.3162 µM)	relative viability ([2]; first compound 1 µM)	relative viability ([3]; first compound 0.01 µM)	relative viability ([3]; first compound 0.03162 µM)	relative viability ([3]; first compound 0.1 µM)	relative viability ([3]; first compound 0.3162 µM)	relative viability ([3]; first compound 1 µM)	relative viability ([4]; first compound 0.01 µM)	relative viability ([4]; first compound 0.03162 µM)	relative viability ([4]; first compound 0.1 µM)	relative viability ([4]; first compound 0.3162 µM)	relative viability ([4]; first compound 1 µM)
RERF-LC-KJ	0.895	0.726	0.637	0.437	0.345	0.963	1.08	0.669	0.429	0.404	0.589	0.68	0.666	0.383	0.395	1.19	1.14	0.853	0.475	0.473
LOU-NH91	0.68	0.679	0.56	0.484	0.548	1.03	0.913	0.816	0.633	0.607	0.85	0.809	0.72	0.577	0.615	0.349	0.348	0.325	0.282	0.317
NCI-H2347	0.89	0.825	0.823	0.498	0.408	0.57	0.491	0.502	0.328	0.395	0.625	0.533	0.533	0.495	0.374	0.295	0.251	0.367	0.282	0.222
NCI-H2126	0.653	0.679	0.615	0.453	0.425	0.916	0.833	0.709	0.493	0.363	0.623	0.499	0.485	0.434	0.331	0.921	0.884	0.484	0.308	0.312
HCC-827	0.212	0.201	0.193	0.141	0.21	0.651	0.523	0.494	0.281	0.172	0.329	0.279	0.278	0.262	0.23	0.6	0.336	0.308	0.319	0.13
NCI-H3122	1.09	1.14	1.04	0.79	0.589	0.775	0.697	0.689	0.338	0.283	0.442	0.341	0.3	0.149	0.129	0.0869	0.101	0.114	0.0794	0.0854
HOP-62	1.14	0.908	0.962	0.369	0.316	0.756	0.501	0.45	0.5	0.184	0.193	0.213	0.239	0.215	0.194	1.08	0.842	0.888	0.634	0.482
HCC-44	1.09	0.997	0.769	0.565	0.443	1.03	1.04	0.957	0.847	0.861	0.971	0.849	0.812	0.8	0.735	1.03	0.974	0.804	0.439	0.429
